In patent US20060035810A1, “Regulation of ins(3456)p4 signalling by a reversible kinase phosphatase and methods and compositions related thereto” (priority 2002, published 2006):

Columns and labels:
[1] = biological target: T1, Ins(1,3,4,5,6)P5 1-phosphatase activity of Ins(3,4,5,6)P4 kinase (Homo sapiens, UniProt Q13572); test: Inositol phosphate phosphatase activity assay with ADP (HPLC); assay type: biochemical; details: 5 μM Ins(1,3,4,5,6)P5, 5 mM ADP, addition of 1-5 μM Ins(1,3,4)P3
T1 construct: made in house; host or cells: E. coli
T1 sequence (Q13572 1-414): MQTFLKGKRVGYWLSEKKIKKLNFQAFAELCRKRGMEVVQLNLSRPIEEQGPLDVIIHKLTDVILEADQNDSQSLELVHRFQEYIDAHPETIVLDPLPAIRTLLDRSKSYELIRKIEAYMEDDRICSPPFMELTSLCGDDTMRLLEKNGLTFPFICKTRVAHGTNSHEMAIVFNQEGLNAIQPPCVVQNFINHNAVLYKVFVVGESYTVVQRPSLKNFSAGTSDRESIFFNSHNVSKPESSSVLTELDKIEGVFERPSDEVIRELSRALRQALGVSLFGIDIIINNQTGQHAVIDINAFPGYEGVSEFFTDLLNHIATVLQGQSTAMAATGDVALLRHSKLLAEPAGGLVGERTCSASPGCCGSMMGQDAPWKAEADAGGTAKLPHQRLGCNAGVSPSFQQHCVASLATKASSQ
Experimental: Ins(3,4,5,6)P4 kinase (0.4 μg) was incubated for 30 min in 100 μl phosphatase assay buffer (see Methods) either with (closed circles) or without (open circles) 5 mM ADP plus trace-amounts of either [^3H]Ins(1,3,4,5,6)P5 (panel A) [^3H]Ins(1,3,4,6)P4 (panel B), or [^3H]Ins(1,3,4,5)P4 (panel C). Samples were analyzed by HPLC (see Methods). The elution positions of Ins(1,3,4)P3 and Ins(3,4,5,6)P4 were verified with genuine standards. The elution positions of Ins(1,3,4,6)P4 (106 min, panel B) and of Ins(1,3,4,5)P4 (110 min, panel C) exclude these as products of InsP5 dephosphorylation (panel A).
Additional incubations were performed with 5 μM [^3H]Ins(1,3,4)P3 (approx. 1200 d.p.m.) plus either no Ins(1,3,4,5,6)P5 (open circles) or 5 μM non-radiolabeled Ins(1,3,4,5,6)P5 (closed circles); these reactions were assayed by HPLC (Synchropak Q100 column) and the InsP4 region of the chromatogram is shown in Panel B.
(§1) Inositol phosphate phosphatase activity was assayed in buffer containing 100 mM KCl, 20 mM HEPES pH 7.2, 5 mM ADP, 6 mM MgSO4, 0.3 mg/ml bovine serum albumin. Assays were acid-quenched, neutralized and analyzed by HPLC using a Synchropak Q100 columm (Caffrey et al., “Expanding Coincident Signaling by PTEN through its Inositol 1,3,4,5,6-Pentakisphosphate 3-phosphatase Activity,” FEBS Lett 499: 6-10 (2001)); 1 ml fractions were collected for 70 min., followed by 0.5 ml fractions. Inositol phosphate kinase activity was assayed in buffer containing 100 mM KCl, 20 mM HEPES pH 7.2, 5 mM ATP, 10 mM phosphocreatine, 6 mM MgSO4, 10 μg/ml creatine phosphokinase (Calbiochem), 0.3 mg/ml bovine serum albumin. Some assays were acid-quenched and analyzed by HPLC using a Synchropak Q100 column. Other reactions were heat-inactivated (95° C., 3 min) and analyzed by a metal dye detection, HPLC method (Mayr, “A novel metal-dye detection sysytem permits picomolar-range h.p.l.c. analysis of inositol polyphosphates from non-radioactively labelled cell or tissue specimens,” Biochem J 254: 585-591 (1988); Adelt et al., “Enzyme-assisted total synthesis of the optical antipodes D-myo-inositol 3,4,5-trisphosphate and D-myo-inositol 1,5,6-trisphosphate: aspects of their structure-activity relationship to biologically active inositol phosphates,” J Med Chem 42: 1262-1273 (1999)).

[2] = biological target: T2, Recombinant human Ins(3,4,5,6)P4 1-kinase (Homo sapiens, UniProt Q13572); test: Inositol phosphate kinase activity assay (HPLC); assay type: biochemical; details: for product of phosphorylation by the kinase: 50 uM substrate, 3.4 ug enzyme, 4 hr, 37° C., 5 mM ATP
T2 construct: made in house; host or cells: E. coli
T2 sequence (Q13572 1-414): T1 sequence (Q13572 1-414)
Experimental: as §1
Activity of 3.4 ug of inositol 3,4,5,6-tetrakisphosphate 1-kinase was assayed for 4 hr. at 37° C. in 200 μl buffer containing 100 mM KCl, 20 mM HEPES pH 7.2, 5 mM ATP, 10 mM phosphocreatine, 6 mM MgSO4, 10 μg/ml creatine phosphokinase (Calbiochem), 0.3 mg/ml bovine serum albumin and 50 uM of either inositol 3,4,5-trisphosphate, 4,5,6-trisphosphate or inositol 3,5,6-trisphosphate. Reactions were heat-inactivated (95° C., 3 min) and analyzed by a metal dye detection, HPLC method.
[…] (Manassas, Va.) supplied the CFPAC-1 cells and T84 cells. Recombinant human Ins(3,4,5,6)P4 1-kinase was expressed in E. coli and purified (Yang et al., “Multitasking in Signal Transduction by a Promiscuous Human Ins(3,4,5,6)P4 1-Kinase/Ins(1,3,4)P3 5/6-Kinase,” Biochem J 351: 551-555 (2000)). Non-radiolabeled Ins(1,3,4)P3 and Ins(1,3,4,5,6)P5 were purchased from CellSignals Inc (Lexington, Ky.). The details of the synthesis of non-radiolabeled Ins(3,4,5)P3, Ins(3,5,6)P3, Ins(4,5,6)P3 and Ins(3,4,6)P3 (as sodium salts) will be published separately by S.-K. C. Ins(3,4,6)P3 was also prepared by a different synthetic route (Mills et al., “Synthesis of D- and L-myo-inositol 1,4,6-trisphosphate, regioisomers of a ubiquitous second messenger,” J Org Chem 61: 8980-8987 (1996)). [^3H]Ins(1,3,4,5,6)P5 was prepared as previously described (Zhang et al., “The Transcriptional Regulator, Arg82, is a Hybrid Kinase with both Monophosphoinositol- and Diphosphoinositol-Polyphosphate Synthase Activity,” FEBS Lett 494: 208-212 (2001)). [^3H]Ins(1,3,4)P3 was prepared from [^3H]Ins(1,3,4,5)P4 (New England Nuclear) using recombinant Ins(1,4,5)P3/Ins(1,3,4,5)P4 5-phosphatase (Erneux et al., “Production of recombinant human brain type I inositol-1,4,5-trisphosphate 5-phosphatase in Escherichia coli. Lack of phosphorylation by protein kinase C,” Eur J Biochem 234: 598-602 (1995)). [^3H]Ins(1,3,4)P3 was converted to [^3H]Ins(1,3,4,6)P4 using Ins(1,3,4)P3 6-kinase activity (Yang et al., “Multitasking in Signal Transduction by a Promiscuous Human Ins(3,4,5,6)P4 1-Kinase/Ins(1,3,4)P3 5/6-Kinase,” Biochem J 351: 551-555 (2000)). [^3H]Ins(3,4)P2 was prepared by alkaline phosphatase attack on [^3H]Ins(1,3,4)P3 in 20 mM glycine (pH 9.0 with KOH). [^3H]Ins(1,4)P2 was purchased from New England Nuclear.

[3] = tested on: insulin granules in pancreatic β-cells; test: Insulin granule acidification, LSG fluorescence with patch-clamp and confocal imaging; assay type: cell-based, mouse
Experimental: FIG. 6. Ins(3,4,5,6)P4 inhibits acidification of insulin granules in pancreatic β-cells. FIG. 6A, Representative time-courses for intragranular acidification, monitored by increased fluorescence of LSG before and after establishment of the standard whole-cell configuration (see arrow) and the effect of perfusion of intracellular medium (containing 0.4 μM [Ca^2+]free except where “no calcium” is indicated; see Methods) plus either 0 (“control”), 1 or 10 μM Ins(3,4,5,6)P4. FIG. 6B, Mean (±SE) fluorescence changes (n-5-11), during the 60 s that followed establishment of the standard whole-cell configuration, for cells perfused with inositol phosphates as indicated at the base of the bar graph. Where indicated, DIDS (100 μM) were added to the bath solution 30 min prior to patching the cells. Statistical significance was evaluated by Student's unpaired t-test (* P<0.01).
The inositol phosphates used in this study were all purchased from CellSignals Inc (Lexington, Ky.). Insulin granule pH were monitored by combining the patch-clamp technique with confocal imaging. Pancreatic β-cells, isolated and cultured on glass coverslips for 2-24 h, were voltage clamped at −70 mV, as previously described (B9). LysoSensor-Green™ DND-189 (1 μM; Molecular Probes, Leiden, The Netherlands) was added during the last 30 min of cell culture and was also included in the extracellular buffer (B9) that continuously perfused the experimental chamber. All LSG experiments were performed at 20° C. to prevent exocytosis that otherwise interfered with the optical measurements (15). LSG fluorescence was excited using the 488 nm-line of a Zeiss 510 confocal microscope. The emitted light was collected with a 63×/1.3 NA oil objective and a >505 nm filter. Laser scanning was performed with low pixel resolution (128×128) and with 6 s intervals to minimize photo-bleaching. After gigaseal formation, it was ascertained that LSG fluorescence was stable for at least 30 s before the experiment commenced. The intracellular electrode solution contained: 125 mM K-glutamate, 10 mM KCl, 1 0 mM NaCl, 1 mM MgCl2, 5 mM HEPES, 3 mM Mg-ATP, 0.1 mM cAMP, 10 mM EGTA and 7 mM CaCl2 (˜0.4 μM free [Ca^2+]I; pH 7.2 with KOH). In some experiments, marked “no calcium”, there was no added Ca^2+, and the concentration of EGTA was 50 μM. Whole-cell capacitance measurements (at 33° C.) were made with the cells clamped at −70 mV, and the standard whole-cell configuration was established at t=0. Capacitance recordings were made using an EPC-7 patch-clamp amplifier equipped with the software Pulse (version 8.4 and later) and the X-chart extension (HEKA Elektronik, Lambrecht/Pfalz, Germany) (B9).

[4] = tested on: calcium-activated Cl− channels; test: Whole-cell Cl− current in CFPAC-1 cells (bio-assay for Ins(3,4,5,6)P4); assay type: cell-based, human; details: 100 μM introduced into CFPAC-1 cells; control 54±3 pA/pF
Experimental: T84 cells were detached by incubation with 0.25% (w/v) trypsin/0.02% (w/v) EDTA for 5-6 min. After trypsin removal, 200 μl aliquots (1.5×10^6/ml) were seeded into the circular wells (area=0.45 cm^2) of permeable supports, made by gluing (Silastic® sealant, Dow Corning, Midland, Mich.) a Sylgard® ring to filters composed of mixed cellulose esters (Millipore Corp., Bedford, Mass.). Seeded supports were floated on culture medium and incubated for 11-14 days before being mounted in modified Snapwell holders in Using chambers (EasyMount System, Physiologics Instruments, San Diego, Calif.). Transcellular Cl^− flux was then recorded as the short-circuit current as previously described. The resistance of the monolayers were (vector) 346±44 ohms/cm^2 (mean±se, n=12) and (kinase) 354±62 ohms/cm^2 (mean±se, n=12). Whole-cell Cl^− currents in CFPAC—I cells were measured at +40 mV as previously described using an intracellular Ca^2+-BAPTA buffer to clamp free [Ca^2+] to 0.5 μM [8]. One possibility is that Ins(3,4,5,6)P4 originates by phosphorylation of an InsP3 precursor. […] Control whole-cell Cl^− current (54±3 pA/pF, n—17) was reduced to 24±3 pA/pF (n=7) by 10 μM Ins(3,4,5,6)P4.

Structure (SMILES) | whether the enzyme phosphorylates the inositol phosphate [2] | product of phosphorylation by the kinase [2] | whole-cell Cl− current [4] [pA/pF] | other results
O=P(O)(O)O[C@@H]1[C@H](O)[C@H](O)[C@@H](OP(=O)(O)O)[C@H](OP(=O)(O)O)[C@H]1O [Ins(1,3,4)P3, inositol 1,3,4-trisphosphate] |  |  |  | increase of net accumulation of Ins(3,4,5,6)P4 [1]: up to 5 fold
O=P(O)(O)OC1[C@@H](OP(=O)(O)O)[C@@H](O)C(O)[C@H](O)[C@H]1OP(=O)(O)O (stereo partly drawn) [Ins(3,4,5)P3, inositol 3,4,5-trisphosphate] |  | phosphorylated to inositol 3,4,5,6-tetrakisphosphate | 61±7 | 
O=P(O)(O)O[C@H]1[C@H](O)[C@H](O)[C@H](OP(=O)(O)O)[C@@H](OP(=O)(O)O)[C@@H]1O [Ins(3,4,6)P3, inositol 3,4,6-trisphosphate] |  | metabolized to Ins(1,3,4,5)P4 | 68±5 | Km ([2]; read-out: Km as kinase substrate): 200 nM
O=P(O)(O)O[C@@H]1[C@@H](O)[C@H](OP(=O)(O)O)[C@@H](OP(=O)(O)O)[C@H](O)[C@@H]1O [Ins(3,5,6)P3, inositol 3,5,6-trisphosphate] |  | phosphorylated to inositol 1,3,5,6-tetrakisphosphate | 60±6 | 
O=P(O)(O)OC1C(O)C(O)C(O)C(OP(=O)(O)O)C1OP(=O)(O)O (stereo not drawn) [Ins(4,5,6)P3, inositol 4,5,6-trisphosphate] |  | phosphorylated to inositol 1,4,5,6-tetrakisphosphate | 56±7 | 
NCCCCCCNS(=O)(=O)c1cccc2c(Cl)cccc12 [W-7] |  |  |  | effect on granule acidification ([3]; treatment of the cells with calmodulin antagonist): without effect

Second part, led by results:

whether the enzyme phosphorylates the inositol phosphate [2] | Structure (SMILES) | product of phosphorylation by the kinase [2] | whole-cell Cl− current [4] [pA/pF] | other results
does not phosphorylate | O=P(O)(O)O[C@H]1[C@H](O)[C@@H](OP(=O)(O)O)[C@H](OP(=O)(O)O)[C@@H](OP(=O)(O)O)[C@H]1O [Ins(1,3,4,5)P4] |  |  | 
not phosphorylated | O=P(O)(O)O[C@H]1[C@H](O)[C@@H](O)[C@H](OP(=O)(O)O)[C@@H](O)[C@H]1O [Ins(1,4)P2] |  |  | 
does not phosphorylate | O=P(O)(O)O[C@H]1[C@H](OP(=O)(O)O)[C@@H](OP(=O)(O)O)[C@@H](O)[C@@H](O)[C@@H]1OP(=O)(O)O [Ins(1,4,5,6)P4, inositol 1,4,5,6-tetrakisphosphate] |  |  | effect on vesicle acidification ([3]; 100 μM): neither 100 μM Ins(1,4,5,6)P4 nor 100 μM Ins(1,3,4,5,6)P5 affected
